What was measured:
[1] = tested on: alpha 2 detla sub unit derived from porcine brain tissue; settings: radio ligand binding, compound without stereochemistry, value from U.S. Pat. No. 6,103,932; cited from earlier work
[2] = water solubility (precipitation of free amino acid at pH 7); assay type: physicochemical; settings: compared to the other gabapentin analogues
Experimental: The process for the preparation of the cis and trans isomer of 4-t-butylgabapentin has been achieved, as outlined in Fig. I. 4-t-Butyl-cyclohexanone (I) was treated with ethylcyano acetate and ammonia in methanol to yield ammonium salt of dicyanoimide (2). Hydrolysis of (2) with hot sulfuric acid afforded the diacid (3) which was converted to the anhydride (4). (4) treated with aqueous ammonia to give the mono-amide (5) as a mixture containing approximately equal proportions of stereoisomers. Reaction of (5) with sodium hypobromite solution led to the formation of lactam (6) as a mixture of stereoisomers [proton NMR (7) and its isomer with NCH2 axial in the ratio of 3:2] from which one of the isomer could be crystallized out in pure form from methanol-hexane, mp 176-7° C. and its structure identified as (7) by NMR and single crystal X-ray analysis (Hydrolysis of lactam (6) with hot concentrated HCl gave a mixture of isomers of 4-t-butyl gabapentin hydrochloride (8). Crystallization of (8) from water afforded in pure form, mp 146-147° C., the isomer hemihydrate (9) with aminomethyl group in the anxial position. […]

In the case of CC(C)(C)C1CCC(CN)(CC(=O)O)CC1 (stereo not shown) [4-t-butyl gabapentin], the IC50 [1] is listed as 200 µM and the melting point is listed as 176 to 180 °C.
For CC(C)(C)C1CCC(CN)(CC(=O)O)CC1 (stereo not shown) [Compound 10, 4-t-butylgabapentin], the melting point was 182 to 183 °C and the water solubility [2] was “much poorer water solubility”.
